Laboratory results taken from patent publication US20260374739A1, “SMALL MOLECULAR WEIGHT CHEMICAL COMPOUND TO ANTAGONIZE EPH-EPHRIN TETRAMERIZATION AND INHIBIT BIDIRECTIONAL SIGNALING” (THE BOARD OF REGENTS OF THE UNIVERSITY OF TEXAS SYSTEM, priority 2022, published 2026).

What was measured:
[1] = in vitro metabolic stability, murine microsomal assay; format: in vitro ADME, mouse; conditions: for half-life: mouse, liver microsomes, murine microsomal assay; for metabolic stability: murine microsomal, compared to A20
[2] = multi-day IP dosing tolerability; format: in vivo, mouse; conditions: multi-day dosing every 12 hr, up to 40 mg/kg
[3] = system: Zymosan-induced mechanical pain in mice; assay: Zymosan inflammatory pain, mechanical; format: in vivo, mouse; conditions: PO; for mechanical pain ratio: vehicle about 3
Procedure: An alternative and potentially faster pain model using Zymosin (an inflammatory agent like CFA) to induce inflammatory pain was tested. […] Mice were first acclimated to the pain testing set ups and then subjected to baseline mechanical and thermal pain measurements. Early in the morning the following day, the left hind paws were injected subcutaneously with 30 μL of Zymosan (5 mg/ml in PBS; Z4250, Sigma-Aldrich). Two hours after the Zymosan injection, the left hind paws were assessed for thermal pain using Hargreaves device (2-4 hr), and then left paws tested for mechanical pain using VF filaments (4-6 hr), and then again for thermal pain (6-8 hr). Data from two independent experiments were pooled to increase the n values for the three different genotypes. […] Thermal pain increased in all group following Zymosan injury as indicated by a decreased average response time to the infrared heat source in all animals assessed, and the level of pain intensified from the 2-4 hr testing period to the 6-8 hr period.
Inflammatory pain was induced by subcutaneous injection of 30 μl of 5 mg/ml Zymosan into the right hind paws of 12 wild-type adult male mice (5-6 months age, 129×1/SvJ background) that in previous days were acclimated to the testing chambers and assessed to obtain baseline pain measurements. After 15 min, mice were orally dosed with either vehicle only (97% PBS/3% DMSO) or with 20, 10, or 5 mg/kg of A20 (2×·HCl salt in vehicle), 3 mice for each condition. Two hours after Zymosan injection, the right hind paws were assessed for thermal pain using Hargreaves device (2-4 hr), then mice were orally dosed again with vehicle only or A20 chemicals, and then right paws tested for mechanical pain using VF filaments (4-6 hr), and then again for thermal pain (6-8 hr).
Inflammatory pain was induced by subcutaneous injection of 30 μl of 5 mg/ml Zymosan into the left hind paws of 9 wild-type adult males (5-6 months age, 129/CD1 mixed background) that in previous days were acclimated to the testing chambers and assessed to obtain baseline pain measurements. After 15 min, mice were orally dosed with either vehicle only (97% PBS/3% DMSO) or with 20 mg/kg of 3511-I (2×·HCl salt in vehicle), or 20 mg/kg BQPB4 (3×·HCl salt in 97% sunflower seed oil/3% DMSO), 3 mice for each condition. Two hours after Zymosan injection, the left […] hind paws were assessed for mechanical pain using VF filaments (2-4 hr), then mice were orally dosed again with vehicle only or A20 chemicals, and then left hind paws tested for thermal pain using Hargreaves device (4-6 hr), and then again for mechanical pain (6-8 hr).

[4] = in vitro plasma stability; format: in vitro ADME; conditions: mouse plasma; for plasma stability: free base or salt
Procedure: FIG. 46 depicts tests of A20 and A20-I free base and salt forms for in vitro plasma stability. Compounds were provided to the UT Southwestern PK Core facility and tested for stability when incubated with mouse plasma.
To examine the drug-like nature of the disclosed compounds, tests for solubility was conducted.

[5] = system: DH neurons in the spinal cord; assay: dorsal horn neuron activation (Tom+) after Zymosan; format: in vivo, mouse; conditions: PO
Text: In this example, an in-house method to count and quantify/analyze Tom+ neurons (see Example 23) in the dorsal horn (DH) of the spinal cord is used to track the effect of an inflammatory insult (subcutaneous injection of CFA into the left hind paw). As described above in Example 23, we initially dissected perfusion-fixed spinal cords and then cut in the transverse plane 50 μm thick serial sections throughout the entire length of the lumbar cord of each animal using a vibratome aiming to capture all sections. As serial sections are cut, they are placed into 10 section bins (500 μm spinal cord per bin) and a total of 12 bins are collected spanning 6 mm total spinal cord length. […] Focusing in on this “sweet spot” of 4 bins, the additional sections were mounted and analyzed (aiming for at least 12 sections from these 4 bins, 3 per bin) to increase total data to analyze.
In another example, 307 Axioscan imaged lumbar spinal cord sections from the “sweet spots” of eight+/+wild-type mice subjected to Zymosan pain model and oral dosing of either vehicle (n=3), 3511-I (2×HCl, n=3), or BQPB4 (3×HCl, n=2) were analyzed. […] There was also a trend towards lower overall Tom+ ratios in the 3511-I or BQPB4 treated mice, though the numbers of mice analyzed here were too low to reveal significance.

| Structure (SMILES) | half-life [1] [h] | mechanical pain [3] | mechanical pain ratio [3] | plasma stability [4] | ratio of Tom+ DH neurons [5] | further results |
| --- | --- | --- | --- | --- | --- | --- |
| Oc1ccc(CN2CCOCC2)c2cccnc12 [Compound 1, 5-(morpholinomethyl)quinolin-8-ol] | 0.367 | – | – | – | – | – |
| Oc1c(Br)cc(CN2CCOCC2)c2cccnc12 [Compound 5, 7-bromo-5-(morpholinomethyl)quinolin-8-ol] | 3.73 | significant reductions in both mechanical and thermal pain | ~1 | quite stable | – | tolerability [2]: well tolerated |
| Oc1c(I)cc(CN2CCOCC2)c2cccnc12 [Compound 7, 7-iodo-5-(morpholinomethyl)quinolin-8-ol] | – | – | – | superior stability | – | metabolic stability ([1]; listed as A20-1): longer in vitro half-life; metabolic stability ([1]; listed as A20-I): increased in vitro metabolic stability compared to A20; plasma half-life longer than A20 [4]: 3-5 times |
| Oc1c(Br)cc(CN2CCN(c3ccc(Br)cc3)CC2)c2cccnc12 [Compound 28, 7-bromo-5-((4-(4-bromophenyl)piperazin-1-yl)methyl)quinolin-8-ol] | – | essentially no enhanced mechanical pain sensitivity | ~1 | – | significantly lower ratio of Tom+ neurons compared to the vehicle treated animals | – |
| COc1ccccc1N1CCN(Cc2cc(Br)c(O)c3ncccc23)CC1 [Compound 70, 7-bromo-5-((4-(2-methoxyphenyl)piperazin-1-yl)methyl)quinolin-8-ol] | 2.27 | – | – | – | – | – |
| COc1ccccc1N1CCN(Cc2cc(I)c(O)c3ncccc23)CC1 [Compound 71, 7-iodo-5-((4-(2-methoxyphenyl)piperazin-1-yl)methyl)quinolin-8-ol] | – | somewhat blunted mechanical pain response | – | – | significantly lower ratio of Tom+ neurons compared to the vehicle treated animals | – |
